Measured values as given in patent US20120329803A1, “Dihydropteridinones, method for production and use thereof” (BOEHRINGER INGELHEIM INTERNATIONAL GMBH, priority 2010, published 2012).
Several values for one entry are separate records, joined by “and”; a condition that tells them apart may be missing. Equal values may be shown once. Read-outs that look alike come from different tables or passages of the source.

Assays:
[1] = test system: NCI-H460 human lung carcinoma cells; assay: Alamar Blue cell proliferation assay, NCI-H460; format: cell-based; settings: 72 h
Procedure: (§1) Kinase assays are performed using full-length recombinant Plk1 enzyme produced in a baculovirus expression system and casein from bovine milk as a substrate. Results represent the means of 2 independent experiments with each data point measured in duplicate. NCI-H460 human non-small cell lung cancer and HCT 116 human colon carcinoma cell lines are used in Alamar Blue™ based proliferation assays. Results represent the means of 3 dose titrations for each cell line with each data point measured in duplicate. Two independent kinase assay experiments are carried out to determine the inhibitory activity of compound (12B) on the Plk1 enzyme. 7 concentrations of compound (12B) are used and each concentration is tested in duplicate measurements.
(§2) For each cell line a proliferation assay experiment is carried out to determine the EC50 values in triplicate. 12 concentrations of each compound are used and each concentration is tested in duplicate measurements.
(§3) HCT 116 human colorectal carcinoma (ATCC CCL 247) and NCI-H460 human lung carcinoma (ATCC HTB-177) cells are used in an Alamar Blue™ based proliferation assay.
(§4) The Alamar Blue™ assay is designed to quantitatively measure the proliferation of cells by incorporating a fluorometric/colorimetric growth indicator that is based on the detection of metabolic activity in viable cells.
(§5) HCT 116 and NCI-H460 cells are grown in IMDM medium containing 10% FCS and 2 mM L-glutamine. They are maintained at 37° C. and 5% CO2 in a humidified atmosphere with a split ratio of 1:5. For proliferation assays in the 96-well format, penicillin-streptomycin is added to the medium at a final concentration of 100 u/ml penicillin and 100 μg/ml streptomycin.
(§6) On day one of the experiment, 1000 cells in 180 μl medium are seeded into each well of a sterile 96-well flat-bottom plate. The plates are kept in the incubator overnight. The compounds are dissolved in DMSO at a concentration of 1000 μM. On day two of the experiment, 12 serial dilutions (1:3) of the compounds are prepared in medium containing 0.1% DMSO. 20 μl of the dilutions are added to each well to yield a final volume of 200 μl per well. As a control, medium containing 0.1% DMSO is added to the designated wells. The cells are then incubated for 72 h. After this incubation period, 20 μl of Alamar Blue™ is added to each well. After 6 h of incubation, the plates are measured in a fluorescence spectrophotometer (excitation 531 nm, emission 595 nm, slits 15, integrate time 0.1). All data points are measured in duplicates.
(§7) The mean value from the duplicates is taken and the background is subtracted. The “0.1% DMSO value” (the mean value obtained from wells containing cells plus 0.1% DMSO containing medium) is taken as “100% control”. […]

human Plk1 enzyme = target: T1, human Plk1 enzyme (Homo sapiens, UniProt P53350); assay: Plk1 low enzyme inhibition (kinase) assay; format: biochemical; settings: casein substrate, 7.5 μM ATP
T1 construct: The full-length coding region of the human Plk1 enzyme (residues 1-603); made in house; host or cells: Sf21 insect cells, baculovirus (pAcG2T vector, BD Biosciences)
Procedure: as §1
The compound is dissolved in DMSO at a concentration of 10 mM. For the proliferation assay and the first kinase assay the compound is freshly dissolved. For the second kinase assay a 10 mM stock solution in DMSO is used.
A baculoviral expression system is used to generate full-length recombinant Plk1 enzyme for the assay. Casein from bovine milk is used as a substrate. All other reagents are from the highest grade of purity commercially available. […]

[2] = test system: HCT 116 human colorectal carcinoma cells; assay: Alamar Blue cell proliferation assay, HCT 116; format: cell-based; settings: HCT 116 cells, 72 h
Procedure: as §1, §2, §3, §4, §5, §6, §7

hERG channel = target: T2, hERG channel (Homo sapiens, UniProt Q12809); assay: hERG channel assay (whole-cell patch clamp); format: cell-based; settings: HEK 293 cells stably transfected with hERG; 0.3, 1, 3, 10 μM tested; read-out: residual currents value (half-inhibitory concentration from fit to residual hERG current)
T2 construct: expressed in transfected cells; host or cells: HEK293 cells, stably transfected; cDNA from M. Sanguinetti, University of Utah
Procedure: HEK (human embryonic kidney) 293 cells are stably transfected with hERG cDNA (obtained courtesy of M. Sanguinetti, University of Utah). Cells determined for use in patch clamp experiments are plated on glass coverslips in 24 well plates and are cultivated without antibiotic during this time.
Coverslips are placed at the bottom of a 2 mL perfusion chamber mounted on the stage of an inverted microscope. Cells are superfused with a bath solution containing (mM): NaCl (137), KCl (4.0), MgCl2 (1.0), CaCl2 (1.8), Glucose (10), HEPES (10), pH 7.4 with NaOH. […]
Membrane currents are recorded using an EPC-10 or equivalent patch clamp amplifier (HEKA Electronics, Lambrecht, FRG) using the whole-cell configuration of the patch-clamp technique. hERG-mediated inactivating tail currents are elicited using a brief hyperpolarising pulse after channel inactivation at a depolarised potential.
Four concentrations of the compound of formula (12B) according to the present invention (0.3, 1, 3, 10 μM) are applied on different cells. A steady state level of baseline current is measured prior to the application of the test article. […]
Peak current amplitudes are measured for each hyperpolarising step. […] Residual currents (I/Io) are calculated for each cell as the fraction of actual average peak current and average baseline peak current. Current inhibition is expressed as (1−I/I0)*100%. […]

[3] = measurement 1, read-out: Measurement 1 EC50
[4] = measurement 2, read-out: Measurement 2 EC50
[5] = measurement 3, read-out: Measurement 3 EC50

T1 sequence (P53350 whole entry, the tested form may be a part): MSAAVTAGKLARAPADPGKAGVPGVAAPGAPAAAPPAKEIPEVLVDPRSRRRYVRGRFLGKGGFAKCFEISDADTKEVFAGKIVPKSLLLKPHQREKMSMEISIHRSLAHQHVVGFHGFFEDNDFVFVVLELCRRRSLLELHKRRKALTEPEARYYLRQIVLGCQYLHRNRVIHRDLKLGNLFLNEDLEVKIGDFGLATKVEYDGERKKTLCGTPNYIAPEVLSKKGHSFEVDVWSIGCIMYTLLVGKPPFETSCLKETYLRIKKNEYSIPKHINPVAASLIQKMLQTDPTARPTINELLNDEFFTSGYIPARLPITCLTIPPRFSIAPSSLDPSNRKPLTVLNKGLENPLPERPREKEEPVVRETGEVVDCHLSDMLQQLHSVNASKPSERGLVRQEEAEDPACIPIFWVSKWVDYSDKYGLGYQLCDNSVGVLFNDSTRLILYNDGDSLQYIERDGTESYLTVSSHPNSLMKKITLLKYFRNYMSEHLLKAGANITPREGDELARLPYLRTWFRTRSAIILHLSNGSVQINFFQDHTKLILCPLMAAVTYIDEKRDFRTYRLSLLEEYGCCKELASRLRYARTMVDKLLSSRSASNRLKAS
T2 sequence (Q12809 whole entry): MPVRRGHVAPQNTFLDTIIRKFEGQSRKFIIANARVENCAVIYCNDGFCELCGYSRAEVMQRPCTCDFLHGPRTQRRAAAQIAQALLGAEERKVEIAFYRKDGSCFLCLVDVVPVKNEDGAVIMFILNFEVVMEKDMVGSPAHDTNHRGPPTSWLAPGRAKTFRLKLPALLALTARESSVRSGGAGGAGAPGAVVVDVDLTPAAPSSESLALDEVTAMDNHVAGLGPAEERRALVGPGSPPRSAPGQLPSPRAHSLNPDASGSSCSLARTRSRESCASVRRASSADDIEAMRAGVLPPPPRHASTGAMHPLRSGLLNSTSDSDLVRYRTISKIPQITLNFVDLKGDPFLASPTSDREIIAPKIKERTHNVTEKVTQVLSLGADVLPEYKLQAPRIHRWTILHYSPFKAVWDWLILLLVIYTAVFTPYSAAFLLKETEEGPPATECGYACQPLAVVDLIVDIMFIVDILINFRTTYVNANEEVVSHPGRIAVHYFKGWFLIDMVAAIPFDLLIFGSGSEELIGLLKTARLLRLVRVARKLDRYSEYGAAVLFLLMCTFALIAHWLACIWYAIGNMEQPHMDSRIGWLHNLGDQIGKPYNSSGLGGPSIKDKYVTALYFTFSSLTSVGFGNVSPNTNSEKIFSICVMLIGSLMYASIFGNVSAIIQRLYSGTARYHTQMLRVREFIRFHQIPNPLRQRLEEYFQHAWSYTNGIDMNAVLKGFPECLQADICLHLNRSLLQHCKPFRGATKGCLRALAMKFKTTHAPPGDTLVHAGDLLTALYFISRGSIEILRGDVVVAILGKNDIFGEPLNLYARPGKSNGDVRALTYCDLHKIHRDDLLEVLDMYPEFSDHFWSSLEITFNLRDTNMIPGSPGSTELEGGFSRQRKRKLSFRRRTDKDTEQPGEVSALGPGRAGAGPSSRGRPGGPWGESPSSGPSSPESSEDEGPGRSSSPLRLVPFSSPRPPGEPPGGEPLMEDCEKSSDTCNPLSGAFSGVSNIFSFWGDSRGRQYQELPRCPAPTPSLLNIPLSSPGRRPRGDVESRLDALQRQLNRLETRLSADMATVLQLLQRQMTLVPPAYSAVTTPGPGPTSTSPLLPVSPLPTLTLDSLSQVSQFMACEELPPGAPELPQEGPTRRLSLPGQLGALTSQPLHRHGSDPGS

**Q.** What does the source list for `CCC1(O)C(=O)N(C)c2cnc(Nc3ccc(C(=O)N[C@H]4CC[C@H](N5CCN(CC6CC6)CC5)CC4)cc3OC)nc2N1C(C)C` (some centres unmarked) [compound 12B]?
**A.** EC50 ([1]; mean of 3, read-out: Mean EC50): 430 nM; EC50 [1, 3]: 517 nM; EC50 [1, 4]: 471 nM; EC50 [1, 5]: 302 nM; IC50 (human Plk1 enzyme; mean of 2 independent experiments, read-out: Mean IC50): 8 nM; IC50 (human Plk1 enzyme; single experiments (experiment number 1, 2), read-out: IC50): 8.1 nM and 7.9 nM; EC50 ([2]; mean of 3, read-out: Mean EC50): 273 nM; EC50 [2, 3]: 311 nM; EC50 [2, 4]: 335 nM; EC50 [2, 5]: 174 nM; IC50 (hERG channel): 9500 nM
